Data from US20060189608A1, “Methods for treating ocular angiogenesis, retinal edema, retinal ischemia, and diabetic retinopathy using selective RTK inhibitors” (Alcon, Inc., priority 2005, published 2006).
pIC50: −log10 of the molar value.

Columns and labels:
FGFR = test: Kinase inhibition profile, related RTK; type: biochemical; settings: ATP concentration of 1 nM
[1] = system: existing laser-induced choroidal neovascularization (CNV); test: Regression of existing laser-induced CNV, intravitreal injection, mouse; type: in vivo; settings: for Mean CNV / Median CNV: intravitreal at day 7, day 14; for inhibition of CNV as compared to vehicle-injected eyes at day 14 post-laser: intravitreal at day 7; for reduction of median CNV area compared to CNV present at 7 days post-laser: intravitreal at day 7, read at day 14
Protocol: Methods. CNV was generated by laser-induced rupture of Bruch's membrane. Briefly, 4 to 5 week old male C57BL/6J mice were anesthetized using intraperitoneal administration of ketamine hydrochloride (100 mg/kg) and xylazine (5 mg/kg) and the pupils of both eyes dilated with topical ocular instillation of 1% tropicamide and 2.5% Mydfin®. One drop of topical cellulose (Gonioscopic®) was used to lubricate the cornea. A hand-held cover slip was applied to the cornea and used as a contact lens to aid visualization of the fundus. Three to four retinal burns were placed in randomly assigned eye (right or left eye for each mouse) using the Alcon 532 nm EyeLite laser with a slit 5 lamp delivery system. The laser burns were used to generate a rupture in Bruch's membrane, which was indicated ophthalmoscopically by the formation of a bubble under the retina. Only mice with laser burns that produced three bubbles per eye were included in the study. Bums were typically placed at the 3, 6, 9 or 12 o'clock positions in the posterior pole of the retina, avoiding the branch retinal arteries and veins.
Each mouse was randomly assigned into one of the following treatment groups: noninjected controls, sham-injected controls, vehicle-injected mice, or one of three RTKi-injected groups. Control mice received laser photocoagulation in both eyes, where one eye received a sham injection, i.e. a pars plana needle puncture. […] The intravitreal injection was performed immediately after laser photocoagulation. At 14 days post-laser, all mice were anesthetized and systemically perfused with fluorescein-labeled dextran. Eyes were then harvested and prepared as choroidal flat mounts with the RPE side oriented towards the observer. All choroidal flat mounts were examined using a fluorescent microscope. Digital images of the CNV were captured, where the CNV was identified as areas of hyperfluorescence within the pigmented background. Computerized image analysis was used to delineate and measure the two dimensional area of the hyperfluorescent CNV per lesion (um^2) for the outcome measurement. The median CNV area/burn per mouse per treatment group or the mean CNV area/burn per treatment group was used for statistical analysis depending on the normality of data distribution; P≦0.05 was considered significant.
METHODS: CNV was generated by laser-induced rupture of Bruch's membrane as described above in Example 3. Each mouse was randomly assigned to one of the following treatment groups: noninjected controls, sham-injected controls, vehicle-injected mice, AL-39324 injected groups. Control mice received laser photocoagulation in both eyes, where one eye received a sham injection, i.e. a pars plana needle puncture. […] All mice received laser photocagulation at day 0. For mice randomized to an injection group, a single intravitreal injection was performed at 7 days post-laser. Also at 7 days post-laser, several mice with no-injection were euthanized and their eyes used for controls. At 14 days post-laser, all remaining mice were euthanized and systemically perfused with fluorescein-labeled dextran. Eyes were then harvested and prepared as choroidal flat mounts with the RPE side oriented towards the observer. Choroidal flat mounts were analyzed as described above in Example 3.

SMILES: Cc1ccc(F)c(NC(=O)Nc2ccc(-c3cccc4[nH]nc(N)c34)cc2)c1 [AL-39324, N-[4-[3-amino-1H-indazol-4-yl)phenyl]-N′-(2-fluoro-5-methylphenyl)urea]
- pIC50 (FGFR): < 4.90
- Mean CNV ([1]; 1% (2 μl)): 31000 µm²
- Median CNV ([1]; 1% (2 μl)): 28300 µm²
- Mean CNV ([1]; 1% (5 μl)): 39200 µm²
- Median CNV ([1]; 1% (5 μl)): 36400 µm²
- inhibition of CNV as compared to vehicle-injected eyes at day 14 post-laser ([1]; 2 μl 1%): 55.9%
- reduction of median CNV area compared to CNV present at 7 days post-laser ([1]; 2 μl 1%): 45.4%
- Mean CNV ([1]; 3% (5 μl)): 35200 µm²
- Median CNV ([1]; 3% (5 μl)): 30600 µm²
- inhibition of CNV as compared to vehicle-injected eyes at day 14 post-laser ([1]; 3%): 52.3%
- inhibition of CNV as compared to vehicle-injected eyes at day 14 post-laser ([1]; 5 μl 1%): 43.7%
- reduction of median CNV area compared to CNV present at 7 days post-laser ([1]; 5 μl 1%): 29.7%
- reduction of median CNV area compared to CNV present at 7 days post-laser ([1]; 5 μl 3%): 41.0%
